Reference: patent US11214835B1, “Methods and compositions for diagnosis and management of neurodegerative diseases” (UNIVERSITY OF SOUTH FLORIDA, priority 2017, dated 2022)
Where two headings read alike, the source gives them in different places.

Assays:
[1] = test system: GAS5 lncRNA; assay: γ-AApeptide OBOC combinatorial library screen with fluorescein tagged GAS5 oligonucleotide, hits validated in vitro; assay type: binding; conditions: fluorescein tagged GAS5 oligonucleotide probe, tRNA as control
Description: The interaction between UPF1 and GAS5 was disrupted using a γ-AApeptide based one-bead-one-compound (OBOC) combinatorial library (Wu H, Li Y, Bai G, Niu Y, Qiao Q, Tipton J D, Cao C, Cai J. gamma-AApeptide-based small-molecule ligands that inhibit Abeta aggregation. Chemical communications. 2014; 50(40):5206-8. doi: 10.1039/c3cc46685j. PubMed PMID: 24158240). The γ-AApeptide is a peptidomimetic with side chains for chemical diversity and are resistant to proteolytic cleavage. To screen the compound library, a probe that contained a fluorescein tagged oligonucleotide was synthesized. The probe spanned 30 nucleotides on either side of the UAA sequences on GAS5 (FIG. 13) The fluorescein was attached to the 5′end (beginning of oligonucleotide probe sequence). The nucleotide sequence within the GAS5 IncRNA that the oligonucleotide probe binds to can be about 100% identical to […] (SEQ ID NO: 4), which is nucleotides 541 to 651 of SEQ ID NO: 1. The underlined regions indicate the UAA that is the target regions. As such, the oligonucleotide probe was designed to flank both sides of these target regions.
The length of oligonucleotide was required to maintain stem loop structure to specifically bind to GAS5. Further, we modeled the oligonucleotide (RNAfold software) to evaluate its folding and verified absence of any unwanted secondary structures. The backbone was modified by 2′-MOE (2′-O-methoxyethylribose), which protects it from degradation and a fluoroscein tag was attached to the 5′end to aid in screening. The oligonucleotide probe was used to screen 160,000 molecules in the combinatorial library using tRNA as control (as tRNA has similar stem loop secondary structures). […] The compound having a structure according to Formula 3 was determined to have a chemical formula of C68H92N10O9S, a mass of about 1224.6769, and a molecular weight of 1225.6050. The compound having a structure according to Formula 14 was determined to have a chemical formula of C63H85N9O13S, a mass of about 1207.5988, and a molecular weight of 1208.4830. […]

[2] = test system: GAS5; assay: Binding of side-chain derivatives to GAS5 (preliminary data)
[3] = test system: HT22 cells; assay: Toxicity of side-chain derivatives to HT22 cells (preliminary data)
[4] = test system: HT22 cells; conditions: mouse
[5] = test system: aged normal and aged diabetic (db/db) mice; assay: Radial arm water maze (RAWM) after intranasal insulin in aged normal and db/db mice; assay type: in vivo, mouse; conditions: 1 unit/ml daily for 3 weeks, both normal aged and aged diabetic mice
Description: (§1) Diabetes increases the risk for impaired cognitive function and dementia by 47%. Patients with T2DM have cognitive deficits affecting verbal and nonverbal memory, attention, information processing speed, and executive function. To assess the cognitive function with respect to insulin resistance in vivo, aged diabetic mice BKS.Cg-+ Lepr^db/+ Lepr^db/OlaHsd (Older db/db mice from Harlan were used; 11 months—as this mouse model has lower life span) along with their normal age-matched controls. We measured the levels of GAS5 and insulin receptor (IR) in young (4 months) and db/db mice along with their age-matched control mice. The hippocampi of the mice were collected and SYBR Green qPCR was performed. […] Intranasal insulin delivery is a noninvasive method that bypasses the blood-brain barrier and delivers insulin to the brain and the spinal cord. Biologically effective concentrations of insulin can be achieved without systemic side effects.
(§2) After intranasal administration, insulin and peptide analogues begin to accumulate in the CSF within 30 minutes. Intranasal insulin directly improves learning and memory and has no effect on circulating blood glucose levels. Thus, the effects may reflect activation of neuronal insulin signaling pathways. […] Errors (incorrect arm choices) and escape latency were recorded for each daily trial (FIGS. 3B-3C).

[6] = test system: insulin receptor (IR); assay: Insulin receptor levels after intranasal insulin treatment; assay type: in vivo, mouse
Description: as §1, §2

[7] = test system: neurons; assay: Immunohistochemistry after insulin treatment; assay type: in vivo, mouse
Description: FIGS. 4A-4B show panels fluorescent microscopic images of the results from Immuno histochemical analysis post insulin treatment in neron cells. The bar in the images of the panel of FIG. 4B is 20 μm.
After intranasal administration, insulin and peptide analogues begin to accumulate in the CSF within 30 minutes. Intranasal insulin directly improves learning and memory and has no effect on circulating blood glucose levels. Thus, the effects may reflect activation of neuronal insulin signaling pathways. The age-matched control and db/db mice cohorts were treated with intranasal insulin (1 unit/ml, daily for 3 weeks) and the radial arm water maze (RAWM) was used for cognitive assessment. Errors (incorrect arm choices) and escape latency were recorded for each daily trial (FIGS. 3B-3C).

[8] = test system: GAS5; assay: GAS5 levels in NDM adipocytes after insulin, real-time qPCR; assay type: cell-based, human; conditions: about 10 nM, 24 hours
Description: Depletion of GAS5 decreases glucose uptake: Adipose tissue is the primary target for insulin-mediated glucose uptake. […] To maintain reproducibility over a larger number of experiments, adipose stem cells derived from normal or diabetic patients were purchased from Zenbio (BMI 20-24, Nondiabetic HbA1C 5.9 (hereafter referred as NDM); T2DM HbA1c 8.5 (hereafter referred as DM)). The adipose stem cells (ASC) were differentiated in vitro to mature adipocytes and used in experiments. GAS5 siRNA (10 nM, Ambion 332778, validated; scrambled siRNA as control) was transfected in NDM pre-adipocytes for 48 h, differentiated to mature NDM adipocytes for 8 days and knockdown confirmed by GAS5 SYBR Green qPCR. We determined the effect of GAS5 depletion on glucose uptake by NDM adipocytes. Cells were serum starved, 10 nM insulin was added to cells for 30 minutes and [^3H]-deoxy-2-D-Glucose uptake was measured. Results indicated a decrease in glucose uptake in GAS5 depleted NDM adipocytes ***p<0.001, highly significant using two-tailed students t-test.
About 10 nM insulin was added to NDM adipocytes for 24 hours. […] Separately, GAS5 was depleted in NDM adipocytes using GAS5 siRNA as described above to evaluate the insulin receptor mediated PI3K→AKT pathway. Whole cell lysates were evaluated by western blot analysis using antibodies against p-AKT and total AKT.

[9] = after intranasal administration; cited from earlier work

## C[C@H]1CN(C(=O)CC2CC2)CC(=O)N[C@@H](CCC(=O)O)CN(C(=O)CCC2CCCCC2)CC(=O)N[C@@H](Cc2ccccc2)CN(CC(N)=O)C(=O)CCSCc2ccc(cc2)C(=O)N[C@@H](Cc2ccccc2)CN(C(=O)CCC(=O)O)CC(=O)N1 [Formula 14]
[1]
  ability to bind GAS5 (identified and validated from library screen): able to bind GAS5

## CC(C)C[C@H]1CN(CC(N)=O)C(=O)CCSCc2ccc(cc2)C(=O)N[C@@H](C)CN(C(=O)CCc2ccccc2)CC(=O)N[C@@H](CC(C)C)CN(C(=O)CC2CC2)CC(=O)N[C@@H](CCCCN)CN(C(=O)CCC2CCCCC2)CC(=O)N1 [YS-D-66]
[2]
  binding to GAS5: bound efficiently to GAS5
[3]
  toxicity to HT22 cells: not toxic to HT22 cells

## CC(C)C[C@H]1CN(C(=O)CCc2ccccc2)CC(=O)N[C@@H](Cc2ccccc2)CN(C(=O)CC2CC2)CC(=O)N[C@@H](Cc2ccccc2)CN(CC(N)=O)C(=O)CCSCc2ccc(cc2)C(=O)N[C@@H](CCCCN)CN(C(=O)CCc2ccccc2)CC(=O)N1 [YS-D-68]
[2]
  binding to GAS5: bound efficiently to GAS5
[3]
  toxicity to HT22 cells: not toxic to HT22 cells

## CC(C)C[C@H]1CN(C(=O)CCc2ccccc2)CC(=O)N[C@@H](Cc2ccccc2)CN(C(=O)CC2CC2)CC(=O)N[C@@H](Cc2ccccc2)CN(CC(N)=O)C(=O)CCSCc2ccc(cc2)C(=O)N[C@@H](Cc2ccccc2)CN(C(=O)CCCN)CC(=O)N1 [YS-D-69]
[2]
  binding to GAS5: bound efficiently to GAS5
[3]
  toxicity to HT22 cells: not toxic to HT22 cells

## NCCCC[C@H]1CN(C(=O)CCCN)CC(=O)N[C@@H](CCC(=O)O)CN(CC(N)=O)C(=O)CCSCc2ccc(cc2)C(=O)N[C@@H](CCCCN)CN(C(=O)CCC(=O)O)CC(=O)N[C@@H](Cc2ccccc2)CN(C(=O)CCc2ccccc2)CC(=O)N1 [YS-D-70]
[2]
  binding to GAS5: bound efficiently to GAS5
[4]
  toxicity to HT22 cells: not toxic to HT22 cells

## insulin
[5]
  cognitive performance in RAWM (errors, escape latency): improved the cognitive performance
[6]
  levels of IR: did not increase
[7]
  neurogenesis: increased
  neuronal proliferation: increased
[8]
  GAS5 levels in NDM adipocytes: increase in GAS5 levels
[9]
  time to begin to accumulate in the CSF: ≤ 30 min
